Assay results taken from US20240382552A1, “COMPOSITION FOR PREVENTING, AMELIORATING OR TREATING SLEEP DISORDER OR INSOMNIA, CONTAINING EXTRACT OF ROASTED CITRUS BYPRODUCT AS ACTIVE INGREDIENT” (priority 2021, published 2024).
Where a name gives a salt, the structure may show the parent alone. Marks after values point to notes of the source that are not given here.

How the values were obtained:
C57BL/6N mice = assay: Sleep architecture analysis (EEG/EMG); format: in vivo; settings: Example 1 100 mg/kg, Example 2 300 mg/kg, zolpidem 10 mg/kg p.o.
Description: After the accommodation period of 1 week, electrodes were inserted into the
C57BL/6N mice for measurement of electroencephalograms (EEGs) and electromyograms (EMGs). After anesthetizing the mouse with pentobarbital (50 mg/kg, i.p.), the head was fixed in a stereotaxic instrument. After incising the subcutaneous connective tissue, a mouse EEG/EMG Headmount (Pinnacle Technology Inc, Oregon, USA) was inserted for EEG and EMG recording. After fixing with dental cement followed by suturing and disinfection, antibiotics were injected for 3 days to prevent inflammation. The mice were allowed to recover for 7 days. For accommodation to the measurement environment, the recording apparatus was connected from 4 days prior to the measurement. After orally administering the sample and waiting for 5 minutes for sedation, EEG and EMG were recorded for 24 hours from 17:00 using PAL-8200 (Pinnacle Technology Inc., Oregon, USA). Sampling rate was set at 200 Hz (epoch time: 10 s). Filtering range was 0.1-25 Hz for EEG and 10-100 Hz for EMG. Sleep architecture was analyzed according to the fast Fourier transform (FFT) algorithm using SleepSign (Ver. 3.0, Kissei Comtec, Nagono, Japan).
Sleep architecture analysis was conducted to evaluate the effect of the roasted citrus byproduct extracts according to an exemplary embodiment of the present disclosure on the quantity and quality of sleep. […]

[1] = system: mice to which a sleeping dose of pentobarbital (45 mg/kg, i.p.) was administered; assay: Pentobarbital-induced sleep test; settings: pentobarbital 45 mg/kg i.p. 45 min after oral sample; DH 30 mg/kg, lime extracts 100 mg/kg, lemon extracts 300 mg/kg; n=10

| SMILES | delta activity during non-REM sleep (C57BL/6N mice) | time after oral administration for which NREM sleep was significantly increased (C57BL/6N mice; 24 h EEG recording) [h] | Sleep duration (min) [1] | Sleep latency (min) [1] |
| --- | --- | --- | --- | --- |
| Cc1ccc(-c2nc3ccc(C)cn3c2CC(=O)N(C)C)cc1 [zolpidem] | significantly decreased delta activity | 6 | – | – |
| CN(C)CCC=C1c2ccccc2COc2ccccc21 [Doxepin hydrochloride (DH), Doxepin hydrochloride] | – | – | 121.2*** min | 2.9*** min |
